# Measured values taken from ChEMBL document CHEMBL2074134, “Identification and characterization of human organic anion transporter 3 expressing predominantly in the kidney” (Mol Pharmacol, 2001).
# T1: Organic anion transporter 3 (Homo sapiens, UniProt Q8TCC7)
# T1 sequence (Q8TCC7 whole entry): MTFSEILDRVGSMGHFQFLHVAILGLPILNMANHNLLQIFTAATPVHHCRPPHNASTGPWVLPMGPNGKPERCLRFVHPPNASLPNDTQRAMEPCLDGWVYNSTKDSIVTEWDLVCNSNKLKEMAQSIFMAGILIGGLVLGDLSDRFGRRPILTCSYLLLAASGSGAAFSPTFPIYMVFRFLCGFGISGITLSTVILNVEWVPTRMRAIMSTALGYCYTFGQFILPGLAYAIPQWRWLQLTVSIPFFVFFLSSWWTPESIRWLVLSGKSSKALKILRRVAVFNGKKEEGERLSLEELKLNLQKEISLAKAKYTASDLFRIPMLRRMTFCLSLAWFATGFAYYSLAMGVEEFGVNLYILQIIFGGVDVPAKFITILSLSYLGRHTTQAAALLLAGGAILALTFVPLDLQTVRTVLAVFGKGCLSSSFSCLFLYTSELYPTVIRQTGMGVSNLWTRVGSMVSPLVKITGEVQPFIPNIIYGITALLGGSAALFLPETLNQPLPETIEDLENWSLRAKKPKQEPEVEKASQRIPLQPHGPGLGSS
# B1: Organic anion transporter 3 (Homo sapiens) (protein)
# chain: T1 sequence (Q8TCC7 whole entry)
# Experiments:
# [1] = molecular target: T1, Organic anion transporter 3; experiment: (§1) TP_TRANSPORTER: uptake in Xenopus laevis oocytes; format: functional, cell-based; conditions: oocyte
# [2] = molecular target: T1, Organic anion transporter 3; experiment: TP_TRANSPORTER: inhibition of E1S uptake (E1S: 0.05 uM, Glutarate: 5 uM) in Xenopus laevis oocytes; format: functional, cell-based; conditions: oocyte
# [3] = molecular target: T1, Organic anion transporter 3; experiment: TP_TRANSPORTER: inhibition of E1S uptake (E1S: 0.05 uM, AZT: 5 uM) in Xenopus laevis oocytes; format: functional, cell-based; conditions: oocyte
# [4] = molecular target: T1, Organic anion transporter 3; experiment: TP_TRANSPORTER: inhibition of E1S uptake (E1S: 0.05 uM, BSP: 5 uM) in Xenopus laevis oocytes; format: functional, cell-based; conditions: oocyte
# [5] = molecular target: T1, Organic anion transporter 3; experiment: TP_TRANSPORTER: inhibition of E1S uptake (E1S: 0.05 uM, PCG: 5 uM) in Xenopus laevis oocytes; format: functional, cell-based; conditions: oocyte
# [6] = molecular target: T1, Organic anion transporter 3; experiment: TP_TRANSPORTER: inhibition of E1S uptake (E1S: 0.05 uM, DHEAS: 5 uM) in Xenopus laevis oocytes; format: functional, cell-based; conditions: oocyte
# [7] = molecular target: T1, Organic anion transporter 3; experiment: TP_TRANSPORTER: inhibition of E1S uptake (E1S: 0.05 uM, Indomethacin: 5 uM) in Xenopus laevis oocytes; format: functional, cell-based; conditions: oocyte
# [8] = molecular target: T1, Organic anion transporter 3; experiment: TP_TRANSPORTER: inhibition of E1S uptake (E1S: 0.05 uM, Guanidine: 5 uM) in Xenopus laevis oocytes; format: functional, cell-based; conditions: oocyte
# [9] = molecular target: T1, Organic anion transporter 3; experiment: TP_TRANSPORTER: inhibition of E1S uptake (E1S: 0.05 uM, Quinidine: 5 uM) in Xenopus laevis oocytes; format: functional, cell-based; conditions: oocyte
# [10] = molecular target: T1, Organic anion transporter 3; experiment: TP_TRANSPORTER: inhibition of E1S uptake (E1S: 0.05 uM, Ouabain: 5 uM) in Xenopus laevis oocytes; format: functional, cell-based; conditions: oocyte
# [11] = molecular target: T1, Organic anion transporter 3; experiment: TP_TRANSPORTER: inhibition of E1S uptake (E1S: 0.05 uM, Probenecid: 5 uM) in Xenopus laevis oocytes; format: functional, cell-based; conditions: oocyte
# [12] = molecular target: T1, Organic anion transporter 3; experiment: TP_TRANSPORTER: inhibition of E1S uptake (E1S: 0.05 uM, Corticosterone: 5 uM) in Xenopus laevis oocytes; format: functional, cell-based; conditions: oocyte
# [13] = molecular target: T1, Organic anion transporter 3; experiment: TP_TRANSPORTER: inhibition of E1S uptake (E1S: 0.05 uM, Diclofenac: 5 uM) in Xenopus laevis oocytes; format: functional, cell-based; conditions: oocyte
# [14] = molecular target: T1, Organic anion transporter 3; experiment: TP_TRANSPORTER: inhibition of E1S uptake (E1S: 0.05 uM, Bumetanide: 5 uM) in Xenopus laevis oocytes; format: functional, cell-based; conditions: oocyte
# [15] = molecular target: T1, Organic anion transporter 3; experiment: TP_TRANSPORTER: inhibition of E1S uptake (E1S: 0.05 uM, Ibuprofen: 5 uM) in Xenopus laevis oocytes; format: functional, cell-based; conditions: oocyte
# [16] = substrate: CN(Cc1cnc2nc(N)nc(N)c2n1)c1ccc(C(=O)N[C@@H](CCC(=O)O)C(=O)O)cc1; experiment: as §1; format: functional, cell-based, Oocyte
# [17] = substrate: C[C@]12CC[C@@H]3c4ccc(OS(=O)(=O)O)cc4CC[C@H]3[C@@H]1CCC2=O; experiment: as §1; format: functional, cell-based, Oocyte
# [18] = substrate: Nc1ccc(C(=O)NCC(=O)O)cc1; experiment: as §1; format: functional, cell-based, Oocyte
# [19] = substrate: CN/C(=N/CCSCc1nc[nH]c1C)NC#N; experiment: cells, lysate or membranes named
molecule,measurement,setting,value
O=C(O)CCCC(=O)O [GLUTARATE],Activity,[1],substrate [+]
same,Activity,[2],inhibitor [(at a rough estimate) 35 % of control]
Cc1cn([C@H]2C[C@H](N=[N+]=[N-])[C@@H](CO)O2)c(=O)[nH]c1=O [ZIDOVUDINE],Activity,[3],is not an inhibitor [-]
O=c1[nH]c(=O)c2[nH]c(=O)[nH]c2[nH]1 [URIC ACID],Activity,[1],substrate [+]
O=C1OC(c2ccc(O)c(S(=O)(=O)[O-])c2)(c2ccc(O)c(S(=O)(=O)[O-])c2)c2c(Br)c(Br)c(Br)c(Br)c21.[Na+].[Na+] [SULFOBROMOPHTHALEIN SODIUM],Activity,[4],inhibitor [(at a rough estimate) 55 % of control]
CC1(C)S[C@@H]2[C@H](NC(=O)Cc3ccccc3)C(=O)N2[C@H]1C(=O)O [PENICILLIN G],Activity,[5],inhibitor [(at a rough estimate) 35 % of control]
C[C@]12CC[C@@H]3c4ccc(O)cc4CC[C@H]3[C@@H]1CC[C@@H]2O[C@@H]1O[C@H](C(=O)O)[C@@H](O)[C@H](O)[C@H]1O [ESTRADIOL 17B GLUCURONIDE],Activity,[1],substrate [+]
O=C(O)[C@H]1O[C@@H](O)[C@H](O)[C@@H](O)[C@@H]1O [GLUCURONATE],Activity,[1],is not a substrate [-]
O=C(O)c1ccccc1O [SALICYLIC ACID],Activity,[1],substrate [+]
C[C@]12CC[C@H](OS(=O)(=O)O)CC1=CC[C@@H]1[C@@H]2CC[C@]2(C)C(=O)CC[C@@H]12 [PRASTERONE SULFURIC ACID],Activity,[6],inhibitor [(at a rough estimate) 10 % of control]
same,Activity,[1],substrate [+]
O=C(O)CCC(=O)O [SUCCINIC ACID],Activity,[1],is not a substrate [-]
COc1ccc2c(c1)c(CC(=O)O)c(C)n2C(=O)c1ccc(Cl)cc1 [INDOMETHACIN],Activity,[7],inhibitor [(at a rough estimate) 15 % of control]
N=C(N)N [GUANIDINE],Activity,[8],is not an inhibitor [-]
Nc1nc2c(ncn2COCCO)c(=O)[nH]1 [ACYCLOVIR],Activity,[1],is not a substrate [-]
C=C[C@H]1C[N@@]2CC[C@H]1C[C@@H]2[C@@H](O)c1ccnc2ccc(OC)cc12 [QUINIDINE],Activity,[9],inhibitor [(at a rough estimate) 55 % of control]
C[C@@H]1O[C@@H](O[C@H]2C[C@@H](O)[C@]3(CO)[C@H]4[C@H](O)C[C@]5(C)[C@@H](C6=CC(=O)OC6)CC[C@]5(O)[C@@H]4CC[C@]3(O)C2)[C@H](O)[C@H](O)[C@H]1O [OUABAIN],Activity,[10],is not an inhibitor [-]
C[C@@H]1Cc2c(Cl)cc(C(=O)N[C@@H](Cc3ccccc3)C(=O)O)c(O)c2C(=O)O1 [3R14S-OCHRATOXIN A],Activity,[1],substrate [+]
CCCN(CCC)S(=O)(=O)c1ccc(C(=O)O)cc1 [PROBENECID],Activity,[11],inhibitor [(at a rough estimate) 10 % of control]
C[C@]12C[C@H](O)[C@H]3[C@@H](CCC4=CC(=O)CC[C@@]43C)[C@@H]1CC[C@@H]2C(=O)CO [CORTICOSTERONE],Activity,[12],inhibitor [(at a rough estimate) 30 % of control]
O=C(O)Cc1ccccc1Nc1c(Cl)cccc1Cl [DICLOFENAC],Activity,[13],inhibitor [(at a rough estimate) 10 % of control]
CCCCNc1cc(C(=O)O)cc(S(N)(=O)=O)c1Oc1ccccc1 [BUMETANIDE],Activity,[14],inhibitor [(at a rough estimate) 10 % of control]
CC(C)Cc1ccc(C(C)C(=O)O)cc1 (centres undefined) [IBUPROFEN],Activity,[1],is not a substrate [-]
same,Activity,[15],inhibitor [(at a rough estimate) 10 % of control]
CCCC(CCC)C(=O)O [VALPROIC ACID],Activity,[1],is not a substrate [-]
B1,Km,[16],10.9 µM
same,Km,[17],3.1 µM
same,Km,[18],87.2 µM
same,Km,[19],57.4 µM
